Reference: ChEMBL document CHEMBL4507268 (2021)

Key:
[1] = target: Cyclin-dependent kinase 1/cyclin B (Homo sapiens) (UniProt P06493+P14635+Q8WWL7+O95067); details: Compound concentration 1.0 uM
[2] = target: RAC-alpha serine/threonine-protein kinase (Homo sapiens) (UniProt P31749); details: Compound concentration 1.0 uM
[3] = target: Glycogen synthase kinase-3 alpha (Homo sapiens) (UniProt P49840); details: Compound concentration 1.0 uM
[4] = target: Dual specificity tyrosine-phosphorylation-regulated kinase 3 (Homo sapiens) (UniProt O43781); details: Compound concentration 1.0 uM
Sequence of Dual specificity tyrosine-phosphorylation-regulated kinase 3 (Homo sapiens) (O43781 whole entry): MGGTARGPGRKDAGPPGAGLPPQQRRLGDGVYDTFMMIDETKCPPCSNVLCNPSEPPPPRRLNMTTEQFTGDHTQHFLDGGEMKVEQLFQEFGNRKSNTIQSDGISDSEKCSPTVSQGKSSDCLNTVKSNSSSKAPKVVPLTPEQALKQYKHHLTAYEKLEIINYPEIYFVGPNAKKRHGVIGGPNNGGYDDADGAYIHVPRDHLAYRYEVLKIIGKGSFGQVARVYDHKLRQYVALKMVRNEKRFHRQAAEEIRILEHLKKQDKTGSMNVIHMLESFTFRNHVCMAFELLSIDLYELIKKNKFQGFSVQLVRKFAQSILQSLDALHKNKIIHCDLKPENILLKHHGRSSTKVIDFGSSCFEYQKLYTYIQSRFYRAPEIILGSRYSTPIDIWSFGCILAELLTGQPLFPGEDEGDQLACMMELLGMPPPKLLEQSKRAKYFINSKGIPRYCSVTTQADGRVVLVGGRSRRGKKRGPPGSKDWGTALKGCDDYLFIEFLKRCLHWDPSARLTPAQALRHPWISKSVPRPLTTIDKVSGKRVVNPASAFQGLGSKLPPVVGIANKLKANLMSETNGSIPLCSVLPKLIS

[5] = target: Serine/threonine-protein kinase NIM1 (Homo sapiens) (UniProt Q8IY84); details: Compound concentration 1.0 uM
Sequence of Serine/threonine-protein kinase NIM1 (Homo sapiens) (Q8IY84 whole entry): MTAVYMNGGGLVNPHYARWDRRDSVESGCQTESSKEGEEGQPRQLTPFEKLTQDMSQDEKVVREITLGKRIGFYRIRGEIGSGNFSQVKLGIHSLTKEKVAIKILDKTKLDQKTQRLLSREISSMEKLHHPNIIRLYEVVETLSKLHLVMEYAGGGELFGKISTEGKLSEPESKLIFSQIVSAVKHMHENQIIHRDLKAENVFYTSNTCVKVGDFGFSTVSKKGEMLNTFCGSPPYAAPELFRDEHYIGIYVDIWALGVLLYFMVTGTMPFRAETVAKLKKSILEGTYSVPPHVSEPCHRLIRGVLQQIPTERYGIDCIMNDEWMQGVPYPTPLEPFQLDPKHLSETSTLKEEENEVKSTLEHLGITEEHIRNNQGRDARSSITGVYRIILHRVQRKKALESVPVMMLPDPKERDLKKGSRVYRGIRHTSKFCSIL

[6] = target: Misshapen-like kinase 1 (Homo sapiens) (UniProt Q8N4C8); details: Compound concentration 1.0 uM
Sequence of Misshapen-like kinase 1 (Homo sapiens) (Q8N4C8 whole entry, looked up): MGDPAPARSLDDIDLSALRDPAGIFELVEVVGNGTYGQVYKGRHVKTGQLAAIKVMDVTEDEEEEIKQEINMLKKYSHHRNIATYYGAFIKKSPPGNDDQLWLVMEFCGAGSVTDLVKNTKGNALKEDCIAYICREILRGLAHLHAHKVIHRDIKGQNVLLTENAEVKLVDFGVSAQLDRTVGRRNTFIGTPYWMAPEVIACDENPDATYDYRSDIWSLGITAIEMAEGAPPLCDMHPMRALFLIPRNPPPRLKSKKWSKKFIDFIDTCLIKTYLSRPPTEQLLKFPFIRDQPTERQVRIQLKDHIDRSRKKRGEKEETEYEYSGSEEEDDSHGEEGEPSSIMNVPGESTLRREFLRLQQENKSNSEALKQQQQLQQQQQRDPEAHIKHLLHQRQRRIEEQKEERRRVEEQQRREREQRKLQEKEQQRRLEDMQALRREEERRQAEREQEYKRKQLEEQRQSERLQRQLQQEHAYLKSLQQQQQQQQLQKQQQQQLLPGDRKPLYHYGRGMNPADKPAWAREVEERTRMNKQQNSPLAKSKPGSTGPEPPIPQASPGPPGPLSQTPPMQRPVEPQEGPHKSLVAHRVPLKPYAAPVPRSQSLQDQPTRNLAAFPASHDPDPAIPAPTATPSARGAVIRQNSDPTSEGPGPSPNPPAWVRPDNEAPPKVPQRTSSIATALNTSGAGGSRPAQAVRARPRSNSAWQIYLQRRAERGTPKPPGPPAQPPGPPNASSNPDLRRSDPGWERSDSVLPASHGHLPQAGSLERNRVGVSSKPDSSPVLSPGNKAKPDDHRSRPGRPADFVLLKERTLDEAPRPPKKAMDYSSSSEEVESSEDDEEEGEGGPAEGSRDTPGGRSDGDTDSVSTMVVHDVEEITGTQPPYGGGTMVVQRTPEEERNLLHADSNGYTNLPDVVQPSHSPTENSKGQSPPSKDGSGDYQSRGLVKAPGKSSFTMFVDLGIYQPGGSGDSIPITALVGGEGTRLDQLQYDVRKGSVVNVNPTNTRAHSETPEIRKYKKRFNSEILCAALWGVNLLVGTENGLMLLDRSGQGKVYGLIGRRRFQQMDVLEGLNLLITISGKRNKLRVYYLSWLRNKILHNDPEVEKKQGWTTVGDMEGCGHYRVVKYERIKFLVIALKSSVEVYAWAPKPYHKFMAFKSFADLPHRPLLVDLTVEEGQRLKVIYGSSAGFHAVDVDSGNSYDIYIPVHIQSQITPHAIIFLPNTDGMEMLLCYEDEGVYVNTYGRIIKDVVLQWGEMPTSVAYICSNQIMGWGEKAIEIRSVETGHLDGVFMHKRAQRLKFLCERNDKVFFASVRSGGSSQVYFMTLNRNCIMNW

[7] = target: T1, Serine/threonine-protein kinase PLK4 (Homo sapiens) (UniProt O00444); details: Compound concentration 1.0 uM
T1 sequence (whole entry): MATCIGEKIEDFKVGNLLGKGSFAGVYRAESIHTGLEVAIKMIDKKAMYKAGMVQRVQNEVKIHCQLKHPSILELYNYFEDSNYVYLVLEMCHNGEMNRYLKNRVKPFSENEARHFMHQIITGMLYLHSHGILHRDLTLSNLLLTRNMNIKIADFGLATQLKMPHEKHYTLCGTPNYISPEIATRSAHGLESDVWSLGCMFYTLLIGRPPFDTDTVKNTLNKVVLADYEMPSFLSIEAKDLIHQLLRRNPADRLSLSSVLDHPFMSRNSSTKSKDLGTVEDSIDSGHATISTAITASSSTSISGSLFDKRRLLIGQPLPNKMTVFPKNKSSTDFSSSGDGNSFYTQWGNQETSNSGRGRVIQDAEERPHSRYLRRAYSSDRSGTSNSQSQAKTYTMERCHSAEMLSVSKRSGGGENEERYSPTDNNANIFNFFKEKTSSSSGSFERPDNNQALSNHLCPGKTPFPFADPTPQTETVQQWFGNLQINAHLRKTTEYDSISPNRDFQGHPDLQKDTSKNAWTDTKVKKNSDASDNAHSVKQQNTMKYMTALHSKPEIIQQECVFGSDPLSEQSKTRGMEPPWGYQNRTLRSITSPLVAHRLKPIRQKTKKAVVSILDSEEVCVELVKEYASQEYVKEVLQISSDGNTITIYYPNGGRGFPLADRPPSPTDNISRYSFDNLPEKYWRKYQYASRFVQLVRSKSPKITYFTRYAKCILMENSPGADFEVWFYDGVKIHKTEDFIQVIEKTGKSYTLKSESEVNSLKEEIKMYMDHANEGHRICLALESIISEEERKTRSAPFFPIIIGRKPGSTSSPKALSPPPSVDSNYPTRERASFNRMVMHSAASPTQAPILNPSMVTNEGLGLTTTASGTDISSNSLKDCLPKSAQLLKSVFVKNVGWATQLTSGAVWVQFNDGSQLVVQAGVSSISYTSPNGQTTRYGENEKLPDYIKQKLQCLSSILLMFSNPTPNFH

[8] = target: T2, Serine/threonine-protein kinase 3 (Homo sapiens) (UniProt Q13188); details: Compound concentration 1.0 uM
T2 sequence (whole entry): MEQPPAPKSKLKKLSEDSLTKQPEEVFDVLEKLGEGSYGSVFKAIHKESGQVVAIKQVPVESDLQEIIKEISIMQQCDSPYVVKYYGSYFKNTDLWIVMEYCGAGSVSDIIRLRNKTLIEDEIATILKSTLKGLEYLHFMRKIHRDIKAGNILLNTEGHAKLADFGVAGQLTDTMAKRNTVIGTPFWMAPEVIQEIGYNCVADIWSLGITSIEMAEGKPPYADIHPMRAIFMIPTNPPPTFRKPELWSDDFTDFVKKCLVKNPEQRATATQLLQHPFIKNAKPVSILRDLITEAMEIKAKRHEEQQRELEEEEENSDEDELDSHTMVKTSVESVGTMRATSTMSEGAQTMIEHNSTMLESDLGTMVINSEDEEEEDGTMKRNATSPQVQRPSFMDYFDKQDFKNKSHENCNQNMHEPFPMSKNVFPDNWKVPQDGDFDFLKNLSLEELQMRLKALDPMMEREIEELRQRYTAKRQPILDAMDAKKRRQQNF

[9] = target: 5'-AMP-activated protein kinase catalytic subunit alpha-1 (Homo sapiens) (UniProt Q13131); details: Compound concentration 1.0 uM
Sequence of 5'-AMP-activated protein kinase catalytic subunit alpha-1 (Homo sapiens) (Q13131 whole entry, looked up): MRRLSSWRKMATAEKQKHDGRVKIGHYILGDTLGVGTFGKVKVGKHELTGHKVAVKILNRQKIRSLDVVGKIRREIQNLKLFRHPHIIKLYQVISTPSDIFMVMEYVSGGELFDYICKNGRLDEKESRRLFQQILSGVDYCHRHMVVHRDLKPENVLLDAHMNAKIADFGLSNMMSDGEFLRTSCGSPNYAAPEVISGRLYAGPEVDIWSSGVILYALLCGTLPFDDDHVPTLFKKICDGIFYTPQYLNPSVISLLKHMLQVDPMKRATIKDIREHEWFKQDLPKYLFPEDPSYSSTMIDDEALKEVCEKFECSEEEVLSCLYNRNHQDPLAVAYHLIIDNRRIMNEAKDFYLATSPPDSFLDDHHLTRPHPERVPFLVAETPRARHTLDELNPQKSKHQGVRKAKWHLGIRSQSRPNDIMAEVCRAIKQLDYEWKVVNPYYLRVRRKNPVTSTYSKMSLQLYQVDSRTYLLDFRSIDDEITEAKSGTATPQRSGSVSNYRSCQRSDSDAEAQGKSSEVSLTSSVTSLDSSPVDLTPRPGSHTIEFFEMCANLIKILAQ

[10] = target: Sodium-dependent serotonin transporter (Homo sapiens) (UniProt P31645); details: Compound concentration 10.0 uM
[11] = target: DNA-dependent protein kinase catalytic subunit (Homo sapiens) (UniProt P78527); details: Compound concentration 1.0 uM
[12] = target: Tyrosine-protein kinase Lck (Homo sapiens) (UniProt P06239); details: Compound concentration 1.0 uM
[13] = target: CDK3/cyclin E (Homo sapiens) (UniProt P24864+O96020+Q00526); details: Compound concentration 1.0 uM
Sequence of CDK3/cyclin E (Homo sapiens) (O96020 whole entry, looked up): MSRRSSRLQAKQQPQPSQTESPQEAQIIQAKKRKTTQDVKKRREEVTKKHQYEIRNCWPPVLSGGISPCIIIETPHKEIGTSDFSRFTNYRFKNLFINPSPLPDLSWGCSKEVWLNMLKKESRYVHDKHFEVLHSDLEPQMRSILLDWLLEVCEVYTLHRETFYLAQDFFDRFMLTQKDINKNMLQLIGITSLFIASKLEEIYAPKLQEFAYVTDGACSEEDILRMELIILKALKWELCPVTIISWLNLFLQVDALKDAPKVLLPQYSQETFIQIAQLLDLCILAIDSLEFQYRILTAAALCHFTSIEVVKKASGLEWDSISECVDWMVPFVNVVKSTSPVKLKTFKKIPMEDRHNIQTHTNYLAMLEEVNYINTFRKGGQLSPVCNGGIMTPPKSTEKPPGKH
Sequence of CDK3/cyclin E (Homo sapiens) (P24864 whole entry, looked up): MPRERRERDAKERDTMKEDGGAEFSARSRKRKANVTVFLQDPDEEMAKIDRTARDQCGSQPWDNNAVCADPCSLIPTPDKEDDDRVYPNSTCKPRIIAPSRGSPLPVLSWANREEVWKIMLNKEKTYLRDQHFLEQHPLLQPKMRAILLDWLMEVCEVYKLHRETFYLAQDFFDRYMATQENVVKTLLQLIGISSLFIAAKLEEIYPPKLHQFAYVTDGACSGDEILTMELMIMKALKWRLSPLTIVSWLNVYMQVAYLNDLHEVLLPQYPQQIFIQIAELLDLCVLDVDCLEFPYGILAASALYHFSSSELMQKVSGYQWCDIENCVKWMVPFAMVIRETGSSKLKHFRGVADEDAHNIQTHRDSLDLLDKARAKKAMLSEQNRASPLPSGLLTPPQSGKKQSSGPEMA
Sequence of CDK3/cyclin E (Homo sapiens) (Q00526 whole entry, looked up): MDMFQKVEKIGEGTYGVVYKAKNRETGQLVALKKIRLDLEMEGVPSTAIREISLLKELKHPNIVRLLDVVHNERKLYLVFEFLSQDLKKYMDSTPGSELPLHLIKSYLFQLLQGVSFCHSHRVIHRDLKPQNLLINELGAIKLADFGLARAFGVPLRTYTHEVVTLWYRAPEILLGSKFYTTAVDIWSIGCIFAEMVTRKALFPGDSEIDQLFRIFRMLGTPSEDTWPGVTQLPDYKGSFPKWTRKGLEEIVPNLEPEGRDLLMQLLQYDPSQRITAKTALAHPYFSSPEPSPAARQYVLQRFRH

[14] = target: Protein kinase C beta type (Homo sapiens) (UniProt P05771); details: Compound concentration 1.0 uM
[15] = target: T3, Protein kinase C iota type (Homo sapiens) (UniProt P41743); details: Compound concentration 1.0 uM
T3 sequence (whole entry): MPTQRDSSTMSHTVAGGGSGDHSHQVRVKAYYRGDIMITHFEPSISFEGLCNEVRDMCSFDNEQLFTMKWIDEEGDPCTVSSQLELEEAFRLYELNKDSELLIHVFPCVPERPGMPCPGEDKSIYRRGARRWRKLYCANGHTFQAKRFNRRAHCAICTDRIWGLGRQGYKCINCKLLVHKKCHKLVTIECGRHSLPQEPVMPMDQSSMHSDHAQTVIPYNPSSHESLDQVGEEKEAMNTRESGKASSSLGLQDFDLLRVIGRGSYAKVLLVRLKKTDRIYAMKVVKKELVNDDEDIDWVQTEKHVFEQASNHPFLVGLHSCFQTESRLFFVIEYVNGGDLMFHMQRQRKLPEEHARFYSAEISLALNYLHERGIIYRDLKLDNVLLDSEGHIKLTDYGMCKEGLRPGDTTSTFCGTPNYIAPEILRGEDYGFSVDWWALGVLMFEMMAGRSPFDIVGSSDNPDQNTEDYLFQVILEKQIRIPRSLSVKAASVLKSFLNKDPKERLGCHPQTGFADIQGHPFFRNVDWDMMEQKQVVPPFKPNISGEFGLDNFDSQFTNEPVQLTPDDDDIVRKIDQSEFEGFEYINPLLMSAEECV

[16] = target: Serine/threonine-protein kinase 38-like (Homo sapiens) (UniProt Q9Y2H1); details: Compound concentration 1.0 uM
Sequence of Serine/threonine-protein kinase 38-like (Homo sapiens) (Q9Y2H1 2-464 limits assumed): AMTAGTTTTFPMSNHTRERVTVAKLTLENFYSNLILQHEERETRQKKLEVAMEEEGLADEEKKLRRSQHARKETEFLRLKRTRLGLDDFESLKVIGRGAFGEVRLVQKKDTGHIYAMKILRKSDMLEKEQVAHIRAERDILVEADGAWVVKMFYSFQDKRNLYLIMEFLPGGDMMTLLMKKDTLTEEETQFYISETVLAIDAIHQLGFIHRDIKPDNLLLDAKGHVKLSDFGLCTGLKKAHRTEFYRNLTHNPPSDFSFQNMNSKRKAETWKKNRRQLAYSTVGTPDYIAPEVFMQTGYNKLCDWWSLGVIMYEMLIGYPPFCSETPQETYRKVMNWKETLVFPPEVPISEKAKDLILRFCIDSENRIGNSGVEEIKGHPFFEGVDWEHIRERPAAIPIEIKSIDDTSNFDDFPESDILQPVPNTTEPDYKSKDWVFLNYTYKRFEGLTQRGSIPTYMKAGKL

[17] = target: Cyclin-dependent kinase 5/CDK5 activator 1 (Homo sapiens) (UniProt Q00535+Q15078); details: Compound concentration 1.0 uM
Sequence of Cyclin-dependent kinase 5/CDK5 activator 1 (Homo sapiens) (Q00535 whole entry): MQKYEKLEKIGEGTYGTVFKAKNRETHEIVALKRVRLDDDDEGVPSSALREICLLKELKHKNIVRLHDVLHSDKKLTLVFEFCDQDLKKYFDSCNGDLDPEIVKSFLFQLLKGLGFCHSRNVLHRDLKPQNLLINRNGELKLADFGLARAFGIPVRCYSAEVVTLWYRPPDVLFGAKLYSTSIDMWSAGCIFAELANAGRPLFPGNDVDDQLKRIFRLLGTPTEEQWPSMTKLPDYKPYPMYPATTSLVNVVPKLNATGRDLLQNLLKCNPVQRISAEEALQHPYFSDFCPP
Sequence of Cyclin-dependent kinase 5/CDK5 activator 1 (Homo sapiens) (Q15078 99-307 partner limits assumed): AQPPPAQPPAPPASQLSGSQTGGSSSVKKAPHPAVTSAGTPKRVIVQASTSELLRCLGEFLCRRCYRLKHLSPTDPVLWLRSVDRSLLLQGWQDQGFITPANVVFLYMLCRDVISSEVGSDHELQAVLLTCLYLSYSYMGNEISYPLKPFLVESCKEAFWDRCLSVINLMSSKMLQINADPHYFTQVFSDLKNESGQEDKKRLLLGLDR

CN1CCN(c2cnc3c(C4CCN(C(=O)c5ccc(OC(F)(F)F)cc5N)CC4)ncnc3c2)CC1 [BAY-885]
inactive: % residual kinase activity [1] 101% | % residual kinase activity [2] 113% | % residual kinase activity [3] 112% | % residual kinase activity [4] 103% | % residual kinase activity [5] 108% | % residual kinase activity [6] 98% | % residual kinase activity [7] 88% | % residual kinase activity [8] 128% | % residual kinase activity [9] 101% | inhibition [10] 32.4% | % residual kinase activity [11] 102% | % residual kinase activity [12] 105% | % residual kinase activity [13] 106% | % residual kinase activity [14] 112% | % residual kinase activity [15] 102% | % residual kinase activity [16] 100% | % residual kinase activity [17] 106%
